# Data reported in patent US20200276181A1, “THIENOISOQUINOLINES AND THEIR DERIVATIVES FOR TARGETING TUBULIN, CH-TOG, AURORA A KINASE, TPX2, CDK5RAP2 AND/OR ASPM” (VALORBEC, SEC, priority 2017, published 2020).
# Key:
# HCT116 cells = assay: Mitotic arrest after one population doubling time; assay type: cell-based; details: HCT116, most responsive
# From the text: (§1) For each condition, 20,000 cells were counted per replicate (N=3). Line graphs (right) were made to better illustrate the relative changes in the cell cycle phases for the different treatments. Bars show standard deviation. The asterisks indicate the first statistically significant change in the G0/G1 and G2/M populations determined by a two-way ANOVA with a post-hoc Tukey's multiple comparisons test using 95% confidence intervals. FIG. 2B) is a line graph showing the percentage of HCT116 (p53−/−) cells, A549 cells, HeLa cells and H1299 cells in mitosis after treatment with various concentrations of C75 for one population doubling time. All of the cell lines show an increase in the proportion of mitotic cells after treatment with 200 nM C75. The bars indicate standard deviation. […]
# (§2) C75 was also tested for efficacy in different cancer cell lines. […] To further assess the role of C75 in disrupting spindles, HeLa cells were treated with 300 nM C75 for 4 hours and the spindle phenotypes were analyzed in more detail (FIG. 2E). […] To assess the affect of C75 on centrosomes, HeLa cells were treated with C75 or nocodazole (a drug that causes microtubule depolymerization as a control) for a short period of time (5 minutes), then the drugs were removed and the cells were analyzed for spindle phenotypes (schematic in FIG. 2G). […]
# HeLa cells = assay: Percentage of mitotic cells, nocodazole +/- C75; assay type: cell-based, human; details: 200 nM C75 + 33 or 66 nM nocodazole
# [1] = test system: H1299 (non-small cell lung cancer) cells; assay: Mitotic arrest after one population doubling time; assay type: cell-based, human; details: H1299, least responsive
# From the text: as §1, §2
smiles,measurement,setting,value
COc1ccc(S(=O)(=O)N2Cc3ccccc3-c3sc(Br)cc32)cc1 [Compound C75],concentration at which mitotic cells increase,HCT116 cells,100 nM
same,change in proportion of mitotic cells,HeLa cells,large change
same,concentration at which mitotic cells show a small increase,[1],200 nM
